Tested on: 186277-243-T-J2-PDC complex spheroid viability
Assay: Anticancer human tumor 186277-243-T-J2-PDC patient-derived colon adenocarcinoma cell line growth inhibition [POLQ]
Details: for IC50: curve of first compound; for viability, T/C: stronger effect = lower value; active means viability on the fitted dose curve at most 10% of control; inactive means the rest
Outline: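 PDC + HUVEC + MSC complex spheroids; POLQ inhibitors ± partner drugs; top conc. at/near clinical Cmax, else 10 microM (SN-38 1 microM), half-log dilutions; 37 degrees C, 5% CO2.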

[1] = second compound 0.0316 µM, first compound 0.0316 µM
[2] = second compound 0.0316 µM, first compound 0.1 µM
[3] = second compound 0.0316 µM, first compound 0.316 µM
[4] = second compound 0.0316 µM, first compound 1 µM
[5] = second compound 0.0316 µM, first compound 3.16 µM
[6] = second compound 0.0316 µM, first compound 10 µM
[7] = second compound 0.1 µM, first compound 0.0316 µM
[8] = second compound 0.1 µM, first compound 0.1 µM
[9] = second compound 0.1 µM, first compound 0.316 µM
[10] = second compound 0.1 µM, first compound 1 µM
[11] = second compound 0.1 µM, first compound 3.16 µM
[12] = second compound 0.1 µM, first compound 10 µM
[13] = second compound 0.316 µM, first compound 0.0316 µM
[14] = second compound 0.316 µM, first compound 0.1 µM
[15] = second compound 0.316 µM, first compound 0.316 µM
[16] = second compound 0.316 µM, first compound 1 µM
[17] = second compound 0.316 µM, first compound 3.16 µM
[18] = second compound 0.316 µM, first compound 10 µM
[19] = second compound 1 µM, first compound 0.0316 µM
[20] = second compound 1 µM, first compound 0.1 µM
[21] = second compound 1 µM, first compound 0.316 µM
[22] = second compound 1 µM, first compound 1 µM
[23] = second compound 1 µM, first compound 3.16 µM
[24] = second compound 1 µM, first compound 10 µM
[25] = second compound 3.16 µM, first compound 0.0316 µM
[26] = second compound 3.16 µM, first compound 0.1 µM
[27] = second compound 3.16 µM, first compound 0.316 µM
[28] = second compound 3.16 µM, first compound 1 µM
[29] = second compound 3.16 µM, first compound 3.16 µM
[30] = second compound 3.16 µM, first compound 10 µM
[31] = second compound 10 µM, first compound 0.0316 µM
[32] = second compound 10 µM, first compound 0.1 µM
[33] = second compound 10 µM, first compound 0.316 µM
[34] = second compound 10 µM, first compound 1 µM
[35] = second compound 10 µM, first compound 3.16 µM
[36] = second compound 10 µM, first compound 10 µM
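Further: spheroids exposed to compounds for seven days.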
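Wherever viability, T/C is given: 100% = DMSO vehicle control viability.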

CC1COCCN1c1cc(C2(S(C)(=N)=O)CC2)nc(-c2ccnc3[nH]ccc23)n1 (stereo unspecified) + COC1C(OC(N)=O)C(O)C(Oc2ccc3c(O)c(NC(=O)c4ccc(O)c(CC=C(C)C)c4)c(=O)oc3c2C)OC1(C)C
817 nM: IC50 (second compound 0.1 µM)
active: viability, T/C [5] 5.81% | viability, T/C [6] 4.54% | viability, T/C [11] 6.12% | viability, T/C [12] 4.78% | viability, T/C [17] 6.74% | viability, T/C [18] 4.71% | viability, T/C [23] 6.98% | viability, T/C [24] 4.23% | viability, T/C [29] 6.45% | viability, T/C [30] 5.04% | viability, T/C [35] 7.67% | viability, T/C [36] 5.44%
inactive: viability, T/C [1] 111% | viability, T/C [2] 96.6% | viability, T/C [3] 117% | viability, T/C [4] 35.3% | viability, T/C [7] 98% | viability, T/C [8] 107% | viability, T/C [9] 111% | viability, T/C [10] 38.1% | viability, T/C [13] 97.5% | viability, T/C [14] 111% | viability, T/C [15] 104% | viability, T/C [16] 36.9% | viability, T/C [19] 95.8% | viability, T/C [20] 98.2% | viability, T/C [21] 105% | viability, T/C [22] 39.8% | viability, T/C [25] 94.8% | viability, T/C [26] 100% | viability, T/C [27] 104% | viability, T/C [28] 37.1% | viability, T/C [31] 108% | viability, T/C [32] 104% | viability, T/C [33] 106% | viability, T/C [34] 34.1%
798 nM: IC50 (second compound 0.316 µM)
788 nM: IC50 (second compound 3.16 µM)
776 nM: IC50 (second compound 10 µM)
793 nM: IC50 (second compound 0.0316 µM)
822 nM: IC50 (second compound 1 µM)

C#Cc1c(F)ccc2cc(O)cc(-c3ncc4c(N5CC6CCC(C5)N6)nc(OCC56CCCN5CC(F)C6)nc4c3F)c12 (stereo unspecified) + Nc1ccc(C#CCN(C(=O)Cc2ncc(C(F)(F)F)cc2C(F)(F)F)c2ccc(F)cc2)nn1
264 nM: IC50 (second compound 0.1 µM)
122 nM: IC50 (second compound 10 µM)
288 nM: IC50 (second compound 1 µM)
active: viability, T/C [36] 8.18%
inactive: viability, T/C [1] 91.2% | viability, T/C [2] 96.2% | viability, T/C [3] 48.5% | viability, T/C [4] 25.6% | viability, T/C [5] 15.5% | viability, T/C [6] 10.8% | viability, T/C [7] 116% | viability, T/C [8] 93.6% | viability, T/C [9] 40.6% | viability, T/C [10] 22.1% | viability, T/C [11] 19.1% | viability, T/C [12] 10.1% | viability, T/C [13] 83.5% | viability, T/C [14] 97.2% | viability, T/C [15] 42% | viability, T/C [16] 27.4% | viability, T/C [17] 16.1% | viability, T/C [18] 10.7% | viability, T/C [19] 103% | viability, T/C [20] 91% | viability, T/C [21] 44.2% | viability, T/C [22] 22.3% | viability, T/C [23] 12.9% | viability, T/C [24] 8.94% | viability, T/C [25] 87.5% | viability, T/C [26] 70.9% | viability, T/C [27] 28.8% | viability, T/C [28] 15.3% | viability, T/C [29] 12.5% | viability, T/C [30] 8.73% | viability, T/C [31] 106% | viability, T/C [32] 55.2% | viability, T/C [33] 25% | viability, T/C [34] 15% | viability, T/C [35] 13%
315 nM: IC50 (second compound 0.0316 µM)
178 nM: IC50 (second compound 3.16 µM)
262 nM: IC50 (second compound 0.316 µM)

CCCS(=O)(=O)Nc1ccc(F)c(C(=O)c2c[nH]c3ncc(-c4ccc(Cl)cc4)cc23)c1F + Nc1ccc(C#CCN(C(=O)Cc2ncc(C(F)(F)F)cc2C(F)(F)F)c2ccc(F)cc2)nn1
> 10000 nM: IC50 (second compound 0.0316 µM) | IC50 (second compound 0.1 µM) | IC50 (second compound 0.316 µM) | IC50 (second compound 1 µM) | IC50 (second compound 3.16 µM)
9970 nM: IC50 (second compound 10 µM)
inactive: viability, T/C [1] 89.6% | viability, T/C [2] 100% | viability, T/C [3] 88.9% | viability, T/C [4] 79.8% | viability, T/C [5] 113% | viability, T/C [6] 66.3% | viability, T/C [7] 91.5% | viability, T/C [8] 87.7% | viability, T/C [9] 86.8% | viability, T/C [10] 82.9% | viability, T/C [11] 91.5% | viability, T/C [12] 60.9% | viability, T/C [13] 89.7% | viability, T/C [14] 90.5% | viability, T/C [15] 89% | viability, T/C [16] 94.3% | viability, T/C [17] 85.8% | viability, T/C [18] 57.8% | viability, T/C [19] 100% | viability, T/C [20] 91.2% | viability, T/C [21] 109% | viability, T/C [22] 94.4% | viability, T/C [23] 87.8% | viability, T/C [24] 62.8% | viability, T/C [25] 120% | viability, T/C [26] 89.5% | viability, T/C [27] 85% | viability, T/C [28] 93.4% | viability, T/C [29] 88% | viability, T/C [30] 63.6% | viability, T/C [31] 108% | viability, T/C [32] 97.7% | viability, T/C [33] 85.7% | viability, T/C [34] 95.9% | viability, T/C [35] 85.1% | viability, T/C [36] 48.8%

— PubChem BioAssay AID1963854 (Molecular Pharmacology Branch, DTP, NCI, 2024)
